The subject of data set [1] is differentially expressed genes (DEGs) in OIR mice. As to the kind of experiment: Bulk RNA-Seq of neurosensory retina of OIR mice. The class given is in vivo, mouse. From the text:
Bulk RNAseq. P17 mouse pups from non-OIR (control), OIR injected with DMSO (vehicle) at P12 […]
enucleated, and their retinas separated from the RPE/choroid. Total RNA was isolated using miRNeasy mini kit (QIAGEN). RNA was quantified using Nanodrop (ND-1000 spectrophotometer; Thermo Scientific). The RNA samples were sequenced by Novogene […]
Raw data (fastq files), data quality control, and genome alignment were generated by Novogene company. DESeq2 (6) was used for differentially expressed genes (DEG) analysis. Genes with adjusted P < 0.05 and log2 fold change > 1 were identified as DEGs. Normalized counts were used to produce clustering heatmaps and “complete” was the default method in the clustering analysis.
Gene Ontology (GO) analysis (biological process) was done using DAVID Bioinformatics Resources (7, 8). FDR < 0.05 was used as the threshold for enriched biological process. […]

For data set [2], the target named is HIF-1α (Homo sapiens, UniProt Q16665). As to the kind of experiment: Immunoblot of HIF-1α accumulation in D120 hiPSC-derived retinal organoids in 1% O2. The class given is cell-based. Set-up: endogenous in cells. The note with it: 1% O2 12 hours, 32-134D. The method, then: An hiPSC line derived from CD34^+ cord blood was used in this study (A18945, Thermo Fisher Scientific) ([70]). Undifferentiated hiPSCs and derived retinal organoids were routinely tested for mycoplasma contamination by PCR. Cell culture, retinal differentiation, and organoid formation were conducted as previously described ([71]). Retinal organoids at D120 were used for experiments.
Chain of HIF-1α (Q16665 whole entry): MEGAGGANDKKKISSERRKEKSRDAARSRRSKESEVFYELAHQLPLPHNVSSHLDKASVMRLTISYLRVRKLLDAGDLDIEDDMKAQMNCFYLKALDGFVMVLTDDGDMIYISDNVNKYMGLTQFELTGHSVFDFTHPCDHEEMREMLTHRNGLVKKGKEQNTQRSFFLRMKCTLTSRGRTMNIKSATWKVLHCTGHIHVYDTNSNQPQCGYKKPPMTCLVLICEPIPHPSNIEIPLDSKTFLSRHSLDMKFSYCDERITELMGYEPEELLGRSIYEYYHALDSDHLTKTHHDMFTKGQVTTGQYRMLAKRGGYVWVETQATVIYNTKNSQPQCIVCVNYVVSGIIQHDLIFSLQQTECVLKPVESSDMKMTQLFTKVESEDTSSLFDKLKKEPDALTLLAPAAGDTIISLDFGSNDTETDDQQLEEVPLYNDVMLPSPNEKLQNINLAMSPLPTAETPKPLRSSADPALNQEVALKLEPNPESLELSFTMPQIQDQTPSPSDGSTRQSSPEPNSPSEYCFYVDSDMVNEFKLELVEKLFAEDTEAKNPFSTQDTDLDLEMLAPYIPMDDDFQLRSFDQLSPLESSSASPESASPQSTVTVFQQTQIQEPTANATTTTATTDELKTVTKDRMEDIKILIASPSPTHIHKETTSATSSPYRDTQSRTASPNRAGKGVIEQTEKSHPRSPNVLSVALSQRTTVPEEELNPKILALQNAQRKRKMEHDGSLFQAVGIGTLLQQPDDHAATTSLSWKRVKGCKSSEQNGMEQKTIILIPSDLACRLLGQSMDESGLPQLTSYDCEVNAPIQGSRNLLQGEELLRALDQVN
(§1) Immunoblot assays. Cells, neurosensory retina, and D120 retinal organoid lysates were subjected
(§2) to 4–15% gradient SDS/PAGE (Invitrogen). Immunoblot (Western blot or WB) assays were
(§3) performed as previously described (1). […]
In general terms: In western blotting, separated proteins are transferred to a membrane and probed.

Data set [3] concerns STZ-induced diabetic mice. As to the kind of experiment: Vascular permeability by Evans blue tracer method in STZ mice. The class given is in vivo, mouse. The note with it: single intraocular injection 70 ng 32-134D. As for the experimental part:
STZ-induced diabetes mouse model. 8-to-10 week-old male mice received an IP injection of STZ at 40 mg/kg of body weight in 0.1M of citrate buffer (pH 4.5) for 5 consecutive days. Normal chow and 10% sucrose water were provided during this period. 10% sucrose was discontinued and replaced with regular water on experimental day 6. […]
Intraocular injections. Intravitreal injections were performed with a PLI-100A Pico-liter Microinjector (Warner Instruments, Harvard Bioscience) using pulled-glass micropipettes. Each micropipette was calibrated to deliver a 1 μl volume on depression of a foot switch. […]
Images were captured with Zeiss fluorescent microscope. Eight fields per eye (2 fields per petal) including area of neovascularization were selected and fluorescence intensity was measured by ImageJ software. […]
The eyes were enucleated and immediately immersed in 4% (wt/vol) paraformaldehyde for 2 hours at room temperature. […] Images were captured by Zeiss fluorescent microscope or confocal microscopy and fluorescence was quantified by the image J software (National Institutes […]
of Health, Bethesda, MD). Blinded quantification of the number of leaking vessels was performed by manual counting of major leakage from capillaries from retinas of each group. […] Random fields were chosen from retinas where leakages were absent to determine baseline fluorescence that arise from capillaries. […]

For data set [4], the system named is retinal ganglion cells (RGCs). As to the kind of experiment: Retinal histology (H&E), RBPMS staining and quantitation of RGCs, ONL/INL thickness after intraocular injection. Type of data set: in vivo, mouse.
Data set [5] has as its target HIF-2α (Homo sapiens, UniProt Q99814). As to the kind of experiment: Immunoblot of HIF-2α accumulation in MIO-M1 cells cultured in hypoxia. Type of data set: cell-based. Set-up: endogenous in cells; host or cells: MIO-M1. Particulars: MIO-M1, 1 μM 32-134D, 1% O2 4 hours. As for the experimental part:
MIO-M1, HUVECs, and ARPE19 cells were cultured in DMEM with 10% (vol/vol) FBS (Quality Biological) and 1% penicillin/streptomycin (Cellgro). A hypoxic chamber (Coy Laboratory Product Inc.; Two Glove Model) with 5% CO2, 94% N2, and 1% O2 gas concentration at 37°C was used to culture hypoxic cells. The control cells were cultured in an incubator maintained at 37°C, with 21% O2 and 5% CO2. […] Aflibercept was obtained from the Johns Hopkins University Pharmacy.
as §1, §2, §3

The mark [6] stands for this setting: OIR mice P17, single intraocular 32-134D 70 ng/μL at P12.

Chain of HIF-2α (Q99814 whole entry): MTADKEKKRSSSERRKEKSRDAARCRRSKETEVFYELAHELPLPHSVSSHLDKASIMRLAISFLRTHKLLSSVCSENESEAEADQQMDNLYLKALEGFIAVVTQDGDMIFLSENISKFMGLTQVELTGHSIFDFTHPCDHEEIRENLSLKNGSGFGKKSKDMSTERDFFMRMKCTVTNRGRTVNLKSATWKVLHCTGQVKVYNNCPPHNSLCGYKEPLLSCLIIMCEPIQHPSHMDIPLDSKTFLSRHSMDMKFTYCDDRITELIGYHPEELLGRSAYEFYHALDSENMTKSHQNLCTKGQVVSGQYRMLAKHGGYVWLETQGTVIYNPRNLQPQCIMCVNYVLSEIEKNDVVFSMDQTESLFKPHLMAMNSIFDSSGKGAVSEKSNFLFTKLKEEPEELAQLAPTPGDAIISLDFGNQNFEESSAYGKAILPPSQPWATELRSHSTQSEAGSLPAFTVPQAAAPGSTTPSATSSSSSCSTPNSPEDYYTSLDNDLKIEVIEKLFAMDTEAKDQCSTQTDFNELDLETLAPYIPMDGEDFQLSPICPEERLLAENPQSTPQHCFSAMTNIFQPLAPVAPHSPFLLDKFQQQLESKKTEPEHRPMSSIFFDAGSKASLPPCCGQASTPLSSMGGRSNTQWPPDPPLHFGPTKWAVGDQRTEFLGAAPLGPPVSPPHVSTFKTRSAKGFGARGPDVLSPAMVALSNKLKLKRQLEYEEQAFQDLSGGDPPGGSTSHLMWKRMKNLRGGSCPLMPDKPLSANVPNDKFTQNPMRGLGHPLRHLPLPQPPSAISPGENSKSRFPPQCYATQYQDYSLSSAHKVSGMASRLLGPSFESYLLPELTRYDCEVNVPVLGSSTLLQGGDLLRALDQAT

Turning to `Brc1ccc2c(-c3csc(-c4c[nH]c5c(Br)cccc45)n3)c[nH]c2c1` [32-134D, 4-(6-bromo-1H-indol-3-yl)-2-(7-bromo-1H-indol-3-yl)thiazole], in data set [1] (setting [6]), the “reduction in downregulated DEGs” value was determined as 93% and the “reduction in upregulated DEGs” value is recorded as 71%. Moreover, the “upregulated DEGs compared with non-OIR (control) mice” value in data set [1] (OIR mice P17, single intraocular 32-134D 70 ng/μL at P12, 250 in untreated OIR) is 73. In data set [1] (OIR mice P17, single intraocular 32-134D 70 ng/μL at P12, 768 in untreated OIR), the “downregulated DEGs compared with non-OIR (control) mice” value is 52. The “top 37 upregulated DEGs of 4 biological functions (inflammation, angiogenesis, hypoxia, vasculogenesis)” value in data set [1] (OIR mice, 32-134D intraocular) is recorded as “normalization”. Moreover, the “accumulation of HIF-1α protein” value in data set [2] was “effectively prevented accumulation”. Also, in data set [3], the “vascular hyperpermeability in STZ mice (in words)” value is recorded as “effectively inhibited vascular hyperpermeability”. For the same molecule, the “retinal histology including GCL” value in data set [4] (32-134D 210 or 350 ng intraocular, 35 days) is on record as “normal histology”. Besides, the “number of RGCs on retinal flat mounts (in words)” value in data set [4] (32-134D at the highest doses tested, 35 days) is listed as “unaffected”. Besides, in data set [4] (32-134D single dose 350 ng, 5 weeks), the “ONL or INL thickness versus vehicle (in words)” value is “failed to demonstrate any changes”. The “therapeutic window following intraocular administration” value in data set [4] (32-134D, mice) was “wide therapeutic window”. Further, the “HIF-2α protein accumulation in response to hypoxia” value in data set [5] was “decreased”.
